The values below come from patent publication US20230303613A1, “3′3′ CYCLIC DINUCLEOTIDES WITH AN ALKENYLENE” (Institute of Organic Chemistry and Biochemistry AS CR, v.v.i, priority 2020, published 2023).

Sequence of WT STING (Q86WV6 whole entry H232R): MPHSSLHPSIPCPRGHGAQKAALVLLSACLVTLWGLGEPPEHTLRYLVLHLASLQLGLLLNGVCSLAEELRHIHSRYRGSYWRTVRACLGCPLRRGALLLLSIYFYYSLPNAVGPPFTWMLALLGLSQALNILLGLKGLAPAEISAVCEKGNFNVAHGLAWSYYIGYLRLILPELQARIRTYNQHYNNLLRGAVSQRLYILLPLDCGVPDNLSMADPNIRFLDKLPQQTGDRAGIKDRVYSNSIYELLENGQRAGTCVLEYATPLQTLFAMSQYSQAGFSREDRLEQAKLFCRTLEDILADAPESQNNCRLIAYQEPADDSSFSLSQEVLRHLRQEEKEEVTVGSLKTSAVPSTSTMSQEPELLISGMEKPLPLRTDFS

The target in the experiment is WT STING (Homo sapiens, UniProt Q86WV6, H232R). In words: 293T WT STING standard reporter assay. Type of experiment: cell-based. The note with it: 293T wtSTING-FL cells; 7 hours with compound, no digitonin; ISRE firefly luciferase reporter. The source says:
Two complementary oligonucleotides of the sequence […] […] […] […] […] The oligonucleotides were mixed in equal molar amounts, hybridized, and cleaved by restriction endonucleases HindIII (cat. #. R0104S, NEB, Ipswich, USA) and BglII (cat. # R0144S, NEB, Ipswich, USA). Ultimately, they were ligated into plasmid pGL4.27 (cat. # E6651, Promega, Madison, USA) linearized with the same enzymes. As result the sequence with four ISRE sites was placed upstream of the minimum promoter of firefly luciferase reporter gene.
After 5 minutes incubation at room temperature (RT), 250 µL of the mixture was added dropwise to the cells in one well. Cells were incubated 36 hours at 37° C. with 5% CO2, and then detached with 0.05% Trypsin and 0.22 g/L EDTA (both cat. # L0941, Biowest, Riverside, USA).
Transfected cells were seeded onto poly-D-lysine coated six well plates at density 50,000 cells per 1 cm^2 in DMEM medium with high glucose containing 10% heat inactivated FBS, 30 µg/mL blasticidin (cat. # ant-bl-05, InvivoGen, San Diego, USA), 0.06 mg/ml Penicillin G and 0.1 mg/ml Streptomycin Sulfate (both cat. #. L0018, Biowest, Riverside, USA). The medium was replenished every 3 - 4 days until visible colonies of cells resistant to blasticidin were formed.
Blasticidin resistant cells stably expressing WT STING were further transfected with […] plasmid following the same procedure as described above. […] Homogeneous culture of stably double transfected cells was prepared by limiting dilution of cells in 96 well plates and wells with cells were selected that originated from a single cell.
The medium was removed next day and three-fold serial dilutions of compounds in 100 µl medium were added to the cells. The plates with cells were incubated for 7 hours at 37° C. with 5% CO2. After 50 µl of the medium was removed, 30 µl of ONE-Glo^Tm Luciferase Assay System reagent (cat. # E6120, Promega, Madison, USA) was added to each well and luminescence was read on Synergy H1 (Biotek, Winooski, USA).
One may read the EC50 as the concentration that produces a half-maximal response. `CC(C)(C)C(=O)OCOP1(=O)/C=C/[C@H]2O[C@@H](n3cnc4c(N)ncnc43)[C@H](F)[C@@H]2OP(=O)(OCOC(=O)C(C)(C)C)OC[C@H]2O[C@@H](n3cnc4c(N)ncnc43)[C@H](F)[C@@H]2O1` (single isomer, unassigned) [Compound 80b]: the EC50 is 22 nM.

For `CCCCCCCC(=O)OCOP1(=O)/C=C/[C@H]2O[C@@H](n3cnc4c(N)ncnc43)[C@H](F)[C@@H]2OP(=O)(OCOC(=O)CCCCCCC)OC[C@H]2O[C@@H](n3cnc4c(N)ncnc43)[C@H](F)[C@@H]2O1` (single isomer, unassigned) [Compound 83b], the EC50 is 3 nM. With `CC(C)(C)C(=O)OCOP1(=O)/C=C/[C@H]2O[C@@H](n3cnc4c(N)ncnc43)C[C@@H]2OP(=O)(OCOC(=O)C(C)(C)C)OC[C@H]2O[C@@H](n3cnc4c(N)ncnc43)[C@H](F)[C@@H]2O1` (single isomer, unassigned) [Compound 87b] the figure was 670 nM; with `CC1(C(=O)OCOP2(=O)/C=C/[C@H]3O[C@@H](n4cnc5c(N)ncnc54)[C@H](F)[C@@H]3OP(=O)(OCOC(=O)C3(C)CCCCC3)OC[C@H]3O[C@@H](n4cnc5c(N)ncnc54)[C@H](F)[C@@H]3O2)CCCCC1` (single isomer, unassigned) [Compound 82a], 200 nM; with `CC1(C(=O)OCOP2(=O)/C=C/[C@H]3O[C@@H](n4cnc5c(N)ncnc54)[C@H](F)[C@@H]3OP(=O)(OCOC(=O)C3(C)CCCCC3)OC[C@H]3O[C@@H](n4cnc5c(N)ncnc54)[C@H](F)[C@@H]3O2)CCCCC1` (single isomer, unassigned) [Compound 82b], 80 nM.

Take `CCCCCCCC(=O)OCOP1(=O)/C=C/[C@H]2O[C@@H](n3cnc4c(N)ncnc43)[C@H](F)[C@@H]2OP(=O)(OCOC(=O)CCCCCCC)OC[C@H]2O[C@@H](n3cnc4c(N)ncnc43)[C@H](F)[C@@H]2O1` (single isomer, unassigned) [Compound 83c]: the EC50 was 3 nM.

Turning to `CC(C)OC(=O)OCOP1(=O)/C=C/[C@H]2O[C@@H](n3cnc4c(N)ncnc43)[C@H](F)[C@@H]2OP(=O)(OCOC(=O)OC(C)C)OC[C@H]2O[C@@H](n3cnc4c(N)ncnc43)[C@H](F)[C@@H]2O1` (stereo partly drawn) [Compound 81a, {[(1R,6R,8R,9R,10R,13E,15R,17R,18R)-8,17-bis(6-amino-9H-purin-9-yl)-9,18-difluoro-3,12-dioxo-3-({[(propan-2-yloxy)carbonyl]oxy}methoxy)-2,4,7,11,16-pentaoxa-3λ^5,12λ^5-diphosphatricyclo[13.3.0.0^6,^10]octadec-13-en-12-yl]oxy}methyl propan-2-yl carbonate], the EC50 was found to be 9500 nM. The figure for `CC(C)(C)C(=O)OCOP1(=O)/C=C/[C@H]2O[C@@H](n3cnc4c(N)ncnc43)[C@H](F)[C@@H]2OP(=O)(OCOC(=O)C(C)(C)C)OC[C@H]2O[C@@H](n3cnc4c(N)ncnc43)[C@H](F)[C@@H]2O1` (single isomer, unassigned) [Compound 80a] is 84 nM; for `CCCCCCCCCCCC(=O)OCOP1(=O)/C=C/[C@H]2O[C@@H](n3cnc4c(N)ncnc43)[C@H](F)[C@@H]2OP(=O)(OCOC(=O)CCCCCCCCCCC)OC[C@H]2O[C@@H](n3cnc4c(N)ncnc43)[C@H](F)[C@@H]2O1` (single isomer, unassigned) [Compound 85b] it is 3 nM; for `CCCCCCCC(=O)OCOP1(=O)/C=C/[C@H]2O[C@@H](n3cnc4c(N)ncnc43)[C@H](F)[C@@H]2OP(=O)(OCOC(=O)CCCCCCC)OC[C@H]2O[C@@H](n3cnc4c(N)ncnc43)[C@H](F)[C@@H]2O1` (single isomer, unassigned) [Compound 83a] it is 23 nM. With `CC(C)(C)C(=O)OCOP1(=O)/C=C/[C@H]2O[C@@H](n3cnc4c(N)ncnc43)C[C@@H]2OP(=O)(OCOC(=O)C(C)(C)C)OC[C@H]2O[C@@H](n3cnc4c(N)ncnc43)[C@H](F)[C@@H]2O1` (single isomer, unassigned) [Compound 87a] the figure was 12100 nM.
